Test results: the NIST ThermoML archive (doi:10.1016/j.fluid.2013.06.044)
± gives the expanded uncertainty stated by the source.

Experiments:
[1] = Liquid, Closed cell (Static) method
[2] = refractive index (Na D-line) (dimensionless); details: 298.15 K; 101.33 kPa; Liquid; Standard Abbe refractometry

Row | vapor or sublimation pressure ([1]; 336.67 K) [kPa] | vapor or sublimation pressure ([1]; 350.33 K) [kPa] | vapor or sublimation pressure ([1]; 350.35 K) [kPa] | vapor or sublimation pressure ([1]; 350.41 K) [kPa] | refractive index [2] | vapor or sublimation pressure ([1]; 350.4 K) [kPa] | vapor or sublimation pressure ([1]; 350.36 K) [kPa] | SMILES
1 | 232.9 ± 1 | 340.4 ± 1.4 | 340.3 ± 0.9 | 340.4 ± 0.9 | 1.43127 ± 0.00031 |  |  | CSC [2-thiapropane]
2 | 1576.5 ± 6.2 |  |  |  |  |  |  | COC [dimethyl ether]
3 |  |  |  |  | 1.35959 ± 0.00037 | 96.5 ± 0.9 |  | CCO [ethanol]
4 |  |  |  |  | 1.3589 ± 0.00036 |  | 196 ± 1 | COC(C)=O [methyl ethanoate]
